Biological target: T1, APOL1 (Homo sapiens, UniProt O14791)
T1 sequence (O14791 1-398): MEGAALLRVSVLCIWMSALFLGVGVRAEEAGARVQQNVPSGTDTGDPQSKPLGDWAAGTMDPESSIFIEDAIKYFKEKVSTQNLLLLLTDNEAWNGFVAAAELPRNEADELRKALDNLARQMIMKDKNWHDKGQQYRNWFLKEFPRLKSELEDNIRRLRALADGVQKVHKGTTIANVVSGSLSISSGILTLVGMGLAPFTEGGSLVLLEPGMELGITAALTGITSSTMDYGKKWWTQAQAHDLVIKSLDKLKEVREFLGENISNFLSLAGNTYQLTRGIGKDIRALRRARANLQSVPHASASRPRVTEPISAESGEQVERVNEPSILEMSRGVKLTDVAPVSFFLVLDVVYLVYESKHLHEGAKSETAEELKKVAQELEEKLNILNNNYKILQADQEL
Assay: MultiTox-Fluor Multiplex Cytotoxicity Assay, tet-inducible APOL1 T-REx-HEK293 cells (G0, G1 or G2 clone not specified for Table 20)
Format: cell-based
Conditions: tet-induced, 24 hours with compound, ratio of dead to live cells, read-out: IP50 (i.e., IC50 for cell proliferation)
Summary of the method: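 HEK293 T-REx cells with tet-inducible APOL1 G0, G1 or G2 clone, 23,400/well, treated with tetracycline plus compound (top 10 μM, 10-point 3-fold, duplicate) for 24 h at 37° C. MultiTox-Fluor dead/live fluorescence ratio, normalized to no-tet (100% viability) and 50 ng/mL tet (0% viability) controls, then curve-fitted.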

Cc1n[nH]c(C(F)(F)Cn2cc(CN3CC[C@]4(C[C@@H]3C)OCCc3ccc(Cl)cc34)nn2)n1 [Compound 168]
IC50: 50 to 500 nM

CC(C)n1cc(Cn2cc(CN3CC[C@]4(C[C@@H]3C)OCCc3ccc(Cl)cc34)nn2)c(=O)[nH]c1=O [Compound 169]
IC50: ≤ 50 nM

Cc1nn(CCO)cc1Cn1cc(CN2CC[C@]3(C[C@@H]2C)OCCc2ccc(Cl)cc23)nn1 [Compound 170]
IC50: ≤ 50 nM

C[C@H]1C[C@@]2(CCN1Cc1cn(CC(=O)NCC3(C#N)CC3)nn1)OCCc1ccc(Cl)cc12 [Compound 171]
IC50: ≤ 50 nM

C[C@H]1C[C@@]2(CCN1Cc1cn(Cc3ccc(C(N)=O)o3)nn1)OCCc1ccc(Cl)cc12 [Compound 172]
IC50: ≤ 50 nM

CCNC(=O)NCCn1cc(CN2CC[C@]3(C[C@@H]2C)OCCc2ccc(Cl)cc23)nn1 [Compound 173]
IC50: ≤ 50 nM

Cc1ccc(Cn2cc(CN3CC[C@]4(C[C@@H]3C)OCCc3ccc(Cl)cc34)nn2)c(=O)[nH]1 [Compound 174]
IC50: 50 to 500 nM

C[C@H]1C[C@@]2(CCN1Cc1cn(CC3(CC(N)=O)CC3)nn1)OCCc1ccc(Cl)cc12 [Compound 175]
IC50: ≤ 50 nM

C[C@H]1C[C@@]2(CCN1Cc1cn(Cc3nccn(C)c3=O)nn1)OCCc1ccc(Cl)cc12 [Compound 176]
IC50: 50 to 500 nM

C[C@H]1C[C@@]2(CCN1Cc1cn(Cc3ncc4c(n3)CCOC4)nn1)OCCc1ccc(Cl)cc12 [Compound 177]
IC50: 50 to 500 nM

Cc1nnc(O)c(Cn2cc(CN3CC[C@]4(C[C@@H]3C)OCCc3ccc(Cl)cc34)nn2)c1C [Compound 178]
IC50: 50 to 500 nM

C[C@H]1C[C@@]2(CCN1Cc1cn(CCCn3ccc(=O)[nH]c3=O)nn1)OCCc1ccc(Cl)cc12 [Compound 179]
IC50: ≤ 50 nM

Cc1cc(Cn2cc(CN3CC[C@]4(C[C@@H]3C)OCCc3ccc(Cl)cc34)nn2)cc(=O)[nH]1 [Compound 180]
IC50: 50 to 500 nM

C[C@H]1C[C@@]2(CCN1Cc1cn(Cc3cn(C4COC4)nn3)nn1)OCCc1ccc(Cl)cc12 [Compound 181]
IC50: ≤ 50 nM

C[C@H]1C[C@@]2(CCN1Cc1cn(Cc3ncc(C(N)=O)s3)nn1)OCCc1ccc(Cl)cc12 [Compound 182]
IC50: ≤ 50 nM

C[C@H]1C[C@@]2(CCN1Cc1cn(CCc3nccc(=O)[nH]3)nn1)OCCc1ccc(Cl)cc12 [Compound 183]
IC50: 50 to 500 nM

C[C@H]1C[C@@]2(CCN1Cc1cn(CC3(C(N)=O)CCOCC3)nn1)OCCc1ccc(Cl)cc12 [Compound 184]
IC50: ≤ 50 nM

C[C@H]1C[C@@]2(CCN1Cc1cn(Cc3nnc(N(C)C)[nH]3)nn1)OCCc1ccc(Cl)cc12 [Compound 185]
IC50: 50 to 500 nM

C[C@H]1C[C@@]2(CCN1Cc1cn(CC(=O)Nc3cn[nH]c3)nn1)OCCc1ccc(Cl)cc12 [Compound 186]
IC50: ≤ 50 nM

C[C@H]1C[C@@]2(CCN1Cc1cn(CCNS(=O)(=O)C3CC3)nn1)OCCc1ccc(Cl)cc12 [Compound 187]
IC50: ≤ 50 nM

C[C@H]1C[C@@]2(CCN1Cc1cn(CC3(C(N)=O)CC3)nn1)OCCc1ccc(Cl)cc12 [Compound 188]
IC50: ≤ 50 nM

C[C@H]1C[C@@]2(CCN1Cc1cn(Cc3cn(C4CC4)c(=O)[nH]c3=O)nn1)OCCc1ccc(Cl)cc12 [Compound 189]
IC50: ≤ 50 nM

CNC(=O)C1OC2(CCN(Cc3cnn(-c4ccccc4)c3)CC2)c2ccccc21 (centres unmarked) [Compound 190, N-methyl-1′-[(1-phenylpyrazol-4-yl)methyl]spiro[1H-isobenzofuran-3,4′-piperidine]-1-carboxamide]
IC50: ≥ 500 nM

NC(=O)C1OC2(CCN(Cc3cnn(-c4ccccc4)c3)CC2)c2cc(Cl)ccc21 (centres unmarked) [Compound 191, 5-chloro-1′-[(1-phenylpyrazol-4-yl)methyl]spiro[1H-isobenzofuran-3,4′-piperidine]-1-carboxamide]
IC50: ≤ 50 nM

O=C(O)C1OC2(CCN(Cc3cnn(-c4ccccc4)c3)CC2)c2cc(Cl)ccc21 (centres unmarked) [Compound 192, 5-chloro-1′-[(1-phenylpyrazol-4-yl)methyl]spiro[1H-isobenzofuran-3,4′-piperidine]-1-carboxylic acid]
IC50: ≥ 500 nM

CNC(=O)C1OC2(CCN(Cc3cnn(-c4ccccc4)c3)CC2)c2cc(Cl)ccc21 (centres unmarked) [Compound 195, 5-chloro-N-methyl-1′-[(1-phenylpyrazol-4-yl)methyl]spiro[1H-isobenzofuran-3,4′-piperidine]-1-carboxamide]
IC50: ≤ 50 nM

Cc1ccc2c(c1)C1(CCN(Cc3cnn(-c4ccccc4)c3)CC1)OC2C(N)=O (centres unmarked) [Compound 196]
IC50: ≤ 50 nM

NC(=O)C1OC2(CCN(Cc3cnn(-c4ccccc4)c3)CC2)c2cc(C(F)(F)F)ccc21 (centres unmarked) [Compound 197]
IC50: ≤ 50 nM

CNC(=O)C1OC2(CCN(Cc3cnn(-c4ccccc4)c3)CC2)c2cc(C)ccc21 (centres unmarked) [Compound 198]
IC50: ≤ 50 nM

CNC(=O)C1OC2(CCN(Cc3cnn(-c4ccccc4)c3)CC2)c2cc(C(F)(F)F)ccc21 (centres unmarked) [Compound 199]
IC50: 50 to 500 nM

CNC(=O)C1OC2(CCN(Cc3cnn(C4CCOCC4)c3)CC2)c2cc(Cl)ccc21 (centres unmarked) [Compound 200]
IC50: 50 to 500 nM

NC(=O)C1OC2(CCN(Cc3cnn(-c4ccccn4)c3)CC2)c2cc(Cl)ccc21 (centres unmarked) [Compound 201]
IC50: ≤ 50 nM

CNC(=O)C1OC2(CCN(Cc3cnn(-c4cccnc4)c3)CC2)c2cc(Cl)ccc21 (centres unmarked) [Compound 202]
IC50: ≤ 50 nM

N#Cc1ccc2c(c1)C1(CCN(Cc3cnn(-c4ccccc4)c3)CC1)OC2C(N)=O (centres unmarked) [Compound 203, 5-cyano-1′-[(1-phenylpyrazol-4-yl)methyl]spiro[1H-isobenzofuran-3,4′-piperidine]-1-carboxamide]
IC50: ≤ 50 nM

CNC(=O)C1OC2(CCN(Cc3cnn(-c4ccccc4)c3)CC2)c2cc(C#N)ccc21 (centres unmarked) [Compound 204, 5-cyano-N-methyl-1′-[(1-phenylpyrazol-4-yl)methyl]spiro[1H-isobenzofuran-3,4′-piperidine]-1-carboxamide]
IC50: 50 to 500 nM

CCc1ccc2c(c1)C1(CCN(Cc3cnn(-c4ccccc4)c3)CC1)OC2C(N)=O (centres unmarked) [Compound 205, 5-ethyl-1′-[(1-phenylpyrazol-4-yl)methyl]spiro[1H-isobenzofuran-3,4′-piperidine]-1-carboxamide]
IC50: ≤ 50 nM

CCc1ccc2c(c1)C1(CCN(Cc3cnn(-c4ccccc4)c3)CC1)OC2C(=O)NC (centres unmarked) [Compound 206, 5-ethyl-N-methyl-1′-[(1-phenylpyrazol-4-yl)methyl]spiro[1H-isobenzofuran-3,4′-piperidine]-1-carboxamide]
IC50: 50 to 500 nM

CS(=O)(=O)CCn1cc(CN2CCC3(CC2)OC(C(N)=O)c2ccc(C(F)(F)F)cc23)nn1 (centres unmarked) [Compound 207, 1′-[[1-(2-methylsulfonylethyl)triazol-4-yl]methyl]-5-(trifluoromethyl)spiro[1H-isobenzofuran-3,4′-piperidine]-1-carboxamide]
IC50: ≥ 500 nM

CS(=O)(=O)CCn1cc(CN2CCC3(CC2)OC(C(N)=O)c2ccc(Cl)cc23)nn1 (centres unmarked) [Compound 208, 5-chloro-1′-[[1-(2-methylsulfonylethyl)triazol-4-yl]methyl]spiro[1H-isobenzofuran-3,4′-piperidine]-1-carboxamide]
IC50: ≥ 500 nM

Cc1ncc(-n2cc(CN3CCC4(CC3)OC(C(N)=O)c3ccc(Cl)cc34)cn2)cn1 (centres unmarked) [Compound 209, 5-chloro-1′-[[1-(2-methylpyrimidin-5-yl)pyrazol-4-yl]methyl]spiro[1H-isobenzofuran-3,4′-piperidine]-1-carboxamide]
IC50: ≤ 50 nM

CNC(=O)C1OC2(CCN(Cc3cnn(CCS(C)(=O)=O)c3)CC2)c2cc(Cl)ccc21 (centres unmarked) [Compound 210, 5-chloro-N-methyl-1′-[[1-(2-methylsulfonylethyl)pyrazol-4-yl]methyl]spiro[1H-isobenzofuran-3,4′-piperidine]-1-carboxamide]
IC50: 50 to 500 nM

CNC(=O)C1OC2(CCN(Cc3cnn(-c4cnc(C)nc4)c3)CC2)c2cc(Cl)ccc21 (centres unmarked) [Compound 211, 5-chloro-N-methyl-1′-[[1-(2-methylpyrimidin-5-yl)pyrazol-4-yl]methyl]spiro[1H-isobenzofuran-3,4′-piperidine]-1-carboxamide]
IC50: ≤ 50 nM

NC(=O)C1OC2(CCN(Cc3cnn(-c4cccc(C(F)(F)F)c4)c3)CC2)c2cc(Cl)ccc21 (centres unmarked) [Compound 212, 5-chloro-1′-[[1-[3-(trifluoromethyl)phenyl]pyrazol-4-yl]methyl]spiro[1H-isobenzofuran-3,4′-piperidine]-1-carboxamide]
IC50: ≤ 50 nM

Cc1c(CN2CCC3(CC2)OC(C(N)=O)c2ccc(Cl)cc23)cnn1-c1ccccc1 (centres unmarked) [Compound 213]
IC50: 50 to 500 nM

CS(=O)(=O)CCn1cc(CN2CCC3(CC2)OC(C(N)=O)c2ccc(Cl)cc23)cn1 (centres unmarked) [Compound 214]
IC50: ≤ 50 nM

Cc1ncc(CN2CCC3(CC2)OC(C(N)=O)c2ccc(Cl)cc23)cn1 (centres unmarked) [Compound 215]
IC50: ≥ 500 nM

Cn1cc(CN2CCC3(CC2)OC(C(N)=O)c2ccc(Cl)cc23)cn1 (centres unmarked) [Compound 216]
IC50: ≤ 50 nM

N#Cc1ccc(CN2CCC3(CC2)OC(C(N)=O)c2ccc(Cl)cc23)cc1 (centres unmarked) [Compound 217]
IC50: 50 to 500 nM

Cc1ccc(CN2CCC3(CC2)OC(C(N)=O)c2ccc(Cl)cc23)nn1 (centres unmarked) [Compound 218]
IC50: ≥ 500 nM

NC(=O)C1OC2(CCN(Cc3cnn(C4CCS(=O)(=O)C4)c3)CC2)c2cc(Cl)ccc21 (centres unmarked) [Compound 219]
IC50: ≤ 50 nM

CC(C)n1cc(CN2CCC3(CC2)OC(C(N)=O)c2ccc(Cl)cc23)cn1 (centres unmarked) [Compound 220]
IC50: ≥ 500 nM

Cc1nc(CN2CCC3(CC2)OC(C(N)=O)c2ccc(Cl)cc23)co1 (centres unmarked) [Compound 221]
IC50: ≥ 500 nM

Cc1nc(CN2CCC3(CC2)OC(C(N)=O)c2ccc(Cl)cc23)c[nH]1 (centres unmarked) [Compound 222]
IC50: ≥ 500 nM

Reference: patent US20250195483A1, “SPIRO PIPERIDINE DERIVATIVES AS INHIBITORS OF APOL1 AND METHODS OF USING SAME” (Vertex Pharmaceuticals Incorporated, priority 2022, published 2025)
